Assay results published in patent US20090246240A1, “DRY BACTERICIDAL NONWOVEN WIPE” (priority 2008, published 2009).
Read-outs that look alike come from different tables or passages of the source.

Tests used:
[1] = test system: Klebsiella pneumoniae; assay: AATCC Test Method 100: Assessment of Antibacterial Finishes on Textile Materials (Klebsiella pneumoniae); format: cell-based, ATCC 4352
Description: (§1) A dry bactericidal wipe comprising was formed using 100% 1.5 denier Visocel® rayon fibers 38-mm in length, available from SNIACE of Torrelavega, Cantabria, Spain. A binder composition containing 5% of an acrylic binder, ST 954, available from Rohm and Hass Chemicals LLC of Charlotte, N.C., U.S.A. and 95% water was applied first using foam application at the first application at a level of about 10.6 grams per square yard, heating using steam or oil heated cans for about 45 seconds at a temperature of about 275° Fahrenheit. A second application of the binder/bactericidal composition containing 5% of the ST 954 acrylic binder, 1% tetradecylbenzyldimethyl ammonium chloride, and 94% water was applied by padding at a level of about 1.2 grams per square yard. The web is then heated in the same manner as above. The wipe has thickness of about 11 mils measured according to ASTM D 1777 and a basis weight of 37.8 g/yd^2, measured according to ASTM D 3776. A sample was prepared for bactericidal testing according to AATCC Test Method 100: Assessment of Antibacterial Finishes on Textile Materials.
(§2) Another aspect of the present invention is the discovery of a new use for a certain bactericidal agent, namely the tetradecylbenzyldimethyl ammonium chloride. As will be appreciated by those skilled in the art, there are various methods to assess the effectiveness of a bactericidal agent. The discovery here is that this particular bactericidal agent provides a greater than 90%, preferably greater than 95%, and more preferably greater than 99% reduction in bacterium, including methicillin resistant Staphylococcus aureus (MRSA or Mursa), Staphylococcus aureus, Klebsiella pneumoniae, or combinations thereof. One method for determining the reduction of such organisms is American Association of Textile Chemists and Colorists (AATCC) Test Method 100, using American Type Culture Collection (ATCC) reference organisms ATCC 33591, methicillin resistant Staphylococcus aureus (MRSA), ATCC 6538, Staphylococcus aureus, and ATCC 4352, Klebsiela pneumoniae. […]

[2] = test system: methicillin resistant Staphylococcus aureus (MRSA); assay: AATCC Test Method 100: Assessment of Antibacterial Finishes on Textile Materials (MRSA); format: cell-based
Description: as §1, §2

[3] = test system: Staphylococcus aureus; assay: AATCC Test Method 100: Assessment of Antibacterial Finishes on Textile Materials (Staphylococcus aureus); format: cell-based, ATCC 6538
Description: as §1, §2

[4] = listed as tetradecyl benzyl dimethyl ammonium chloride
[5] = listed as tetradecyldimethylbenzyl ammonium chloride

## CCCCCCCCCCCCCC[N+](C)(C)Cc1ccccc1.[Cl-] [tetradecylbenzyldimethyl ammonium chloride]
[1]
  reduction in the Klebsiella pneumoniae bacterium: greater than 90%
[1]; [4]
  reduction in the Klebsiella pneumoniae bacterium: greater than 90%
[1]; [5]
  reduction in the Klebsiella pneumoniae bacterium: more than 99%
[2]
  reduction in methicillin resistant Staphylococcus aureus (MRSA): greater than 90%
[2]; [4]
  reduction in methicillin resistant Staphylococcus aureus (MRSA): greater than 90%
[2]; [5]
  reduction in methicillin resistant Staphylococcus aureus (MRSA): more than 99%
[3]
  reduction in Staphylococcus aureus bacterium: greater than 90%
[3]; [4]
  reduction in Staphylococcus aureus bacterium: greater than 90%
[3]; [5]
  reduction in Staphylococcus aureus bacterium: more than 99%
